Where two headings read alike, the source gives them in different places.
What was measured:
SpnFADS [1] = biological target: T1, SpnFADS (Streptococcus pneumoniae, UniProt A0A0H2UPY5); experiment: RFK activity, HPLC of flavins, global Lineweaver-Burk fit; type: biochemical
T1 construct: gene SP_1110; full-length bifunctional enzyme from pET-15b in E. coli BL21 Star (DE3), His6-tag removed; riboflavin kinase activity of the C-terminal module; functional form monomer
T1 sequence (A0A0H2UPY5 1-305): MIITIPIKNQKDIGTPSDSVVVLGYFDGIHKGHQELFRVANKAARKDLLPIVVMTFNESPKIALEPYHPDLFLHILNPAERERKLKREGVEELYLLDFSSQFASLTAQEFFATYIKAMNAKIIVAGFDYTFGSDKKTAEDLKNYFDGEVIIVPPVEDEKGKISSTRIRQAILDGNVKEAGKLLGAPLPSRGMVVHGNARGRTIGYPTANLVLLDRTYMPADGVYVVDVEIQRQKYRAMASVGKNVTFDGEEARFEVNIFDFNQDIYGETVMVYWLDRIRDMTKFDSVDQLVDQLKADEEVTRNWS
Text: (§1) RFK activity, HPLC of flavins, global Lineweaver-Burk fit on SpnFADS

SpnFADS [2] = biological target: T1, SpnFADS; experiment: biochemical; set-up: Isothermal titration calorimetry, ligand titrated into free or ligand-pre-bound SpnFADS, 20 °C, PIPES pH 7.0
Method: We performed isothermal titration calorimetry (ITC) assays to elucidate both the ligand binding order and the thermodynamic inhibition produced by the binding of the FLV and ANP ligands. Titrations were performed on an AutoITC200 (MicroCal, Malvern, UK) thermostated at 20 °C, as previously described. Approximately 25 µM SpnFADS contained in a 200 µL-cell was titrated with solutions of 180 µM RF, 250 µM FMN, or 350 µM ATP or ADP. Additionally, titrations with ANP ligands into mixtures that contain the protein pre-bound to FLV ligands were performed, as well as titrations with FLV ligands into pre-bound SpnFADS:ANP complexes. The titrations were conducted through 19 stepwise injections of 2 µL of the titrating ligand to the calorimetric cell, as previously described[21]^,[26]. Both the ligands and the protein were dissolved in 20 mM PIPES, pH 7.0, either in presence of 0.8 mM MgCl2 or in absence of this cation, and degassed before the titration. The enthalpy change (ΔH), the association constant (Ka), and the binding stoichiometry (N) were obtained through non-linear least squares regression of the data using a homemade fitting routine corresponding to a model for one or two independent binding sites, implemented in Origin 7.0 (OriginLab, Northampton, MA, USA), as previously described[21]^,[26]. The Gibbs free energy (ΔG), the entropic contribution (−TΔS), and the dissociation constant (Kd) were obtained using well-known thermodynamic equations. Cooperativity constants (α) between ANP and FLV ligands were obtained as previously described[23]^,[27]^,[28]. Particular titrations with ANP ligands into mixtures of the protein and 100 µM FLV were fit to a homemade fitting routine corresponding to a model that considers the influence of the FLV ligand in the protein binding affinity for the ANP ligand[27]^,[28]. Experiments were performed in triplicate. The errors considered in the measured parameters (±15% in Kd and Ka values, ±0.3 kcal mol^−1 in ΔG, ΔH, and −TΔS and ±20% in α) were assumed to be larger than the standard deviation between replicates and the numerical error after fitting analysis.

SpnFADS [3] = biological target: T1, SpnFADS; experiment: stopped-flow flavin fluorescence, Kd from koff and kon; type: binding
Text: stopped-flow flavin fluorescence, Kd from koff and kon on SpnFADS

[4] = substrate: Cc1cc2nc3c(=O)[nH]c(=O)nc-3n(C[C@H](O)[C@H](O)[C@H](O)CO)c2cc1C; experiment: RFK activity, HPLC of flavins, global Lineweaver-Burk fit; type: biochemical, Streptococcus pneumoniae; details: co-substrate ATP, 20 mM PIPES pH 7.0, 0.8 mM MgCl2, 25 °C
Text: as §1

[5] = substrate: Nc1ncnc2c1ncn2[C@@H]1O[C@H](COP(=O)(O)OP(=O)(O)OP(=O)(O)O)[C@@H](O)[C@H]1O; experiment: as above; type: biochemical, Streptococcus pneumoniae; details: co-substrate RF, 20 mM PIPES pH 7.0, 0.8 mM MgCl2, 25 °C
Text: as §1

[6] = enzyme pre-bound to ADP, 0.8 mM MgCl2
[7] = enzyme pre-bound to ADP, no MgCl2, read-out: Kd (μM), 0.0 mM MgCl2

Nc1ncnc2c1ncn2[C@@H]1O[C@H](COP(=O)(O)OP(=O)(O)O)[C@@H](O)[C@H]1O [ADP, adenosine 5′-diphosphate]
Ki (SpnFADS [1]; read-out: Ki^ADP): 130000 ± 16000 nM

Cc1cc2nc3c(=O)[nH]c(=O)nc-3n(C[C@H](O)[C@H](O)[C@H](O)COP(=O)(O)O)c2cc1C [FMN, flavin mononucleotide]
Kd (SpnFADS [2]; [6]): 2.3 µM
Kd (SpnFADS [2]; [7]): 7.9 µM
Kd (SpnFADS [2]; enzyme pre-bound to ATP, 0.8 mM MgCl2): 1.6 µM
Kd (SpnFADS [3]): 760 ± 240 nM
Ki (SpnFADS [1]; read-out: Ki^FMN): 1300 ± 400 nM

Cc1cc2nc3c(=O)[nH]c(=O)nc-3n(C[C@H](O)[C@H](O)[C@H](O)CO)c2cc1C [RF, riboflavin]
Kd (SpnFADS [2]; [6]): 1.6 µM
Kd (SpnFADS [2]; [7]): 0.3 µM
Kd (SpnFADS [2]; enzyme pre-bound to ATP, no MgCl2, read-out: Kd (μM), 0.0 mM MgCl2): 2.5 µM
Kd (SpnFADS [3]): 570 ± 140 nM

B1: SpnFADS (Streptococcus pneumoniae TIGR4) (protein)
chain: MIITIPIKNQKDIGTPSDSVVVLGYFDGIHKGHQELFRVANKAARKDLLPIVVMTFNESPKIALEPYHPDLFLHILNPAERERKLKREGVEELYLLDFSSQFASLTAQEFFATYIKAMNAKIIVAGFDYTFGSDKKTAEDLKNYFDGEVIIVPPVEDEKGKISSTRIRQAILDGNVKEAGKLLGAPLPSRGMVVHGNARGRTIGYPTANLVLLDRTYMPADGVYVVDVEIQRQKYRAMASVGKNVTFDGEEARFEVNIFDFNQDIYGETVMVYWLDRIRDMTKFDSVDQLVDQLKADEEVTRNWS
notes: full-length bifunctional enzyme from pET-15b in E. coli BL21 Star (DE3), His6-tag removed; riboflavin kinase activity of the C-terminal module; functional form monomer
Km [4]: 1.2 ± 0.3 µM
kcat [4]: 0.917 ± 0.033 s⁻¹
Km [5]: 75 ± 7 µM
kcat [5]: 0.917 ± 0.033 s⁻¹

From article PMC6010069, “The RFK catalytic cycle of the pathogen Streptococcus pneumoniae shows species-specific features in prokaryotic FMN synthesis” (Journal of Enzyme Inhibition and Medicinal Chemistry, 2018)
